Results taken from ChEMBL document CHEMBL1140804, “Design, synthesis and evaluation of trifluoromethane sulfonamide derivatives as new potent and selective peroxisome proliferator-activated receptor alpha agonists” (Bioorg Med Chem Lett, 2008).

Experiments:
[1] = target: T1, Peroxisome proliferator-activated receptor alpha (Homo sapiens, UniProt Q07869)
T1 sequence (Q07869 whole entry): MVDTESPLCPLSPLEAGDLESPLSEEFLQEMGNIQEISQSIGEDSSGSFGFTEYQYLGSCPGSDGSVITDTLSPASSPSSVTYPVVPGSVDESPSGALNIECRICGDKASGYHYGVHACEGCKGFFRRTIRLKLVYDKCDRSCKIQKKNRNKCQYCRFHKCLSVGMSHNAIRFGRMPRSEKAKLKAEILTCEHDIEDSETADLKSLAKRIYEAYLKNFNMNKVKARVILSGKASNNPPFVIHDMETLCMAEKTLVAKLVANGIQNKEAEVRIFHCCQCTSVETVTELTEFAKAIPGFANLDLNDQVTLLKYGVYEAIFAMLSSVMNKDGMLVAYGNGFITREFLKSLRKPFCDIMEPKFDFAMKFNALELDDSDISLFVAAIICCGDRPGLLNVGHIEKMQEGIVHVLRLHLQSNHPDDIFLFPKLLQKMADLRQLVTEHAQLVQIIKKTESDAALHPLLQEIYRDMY
Description: Agonist activity at human PPARalpha assessed as receptor activation by cell based assay

[2] = target: T2, Peroxisome proliferator-activated receptor gamma (Mus musculus, UniProt P37238)
T2 sequence (P37238 whole entry): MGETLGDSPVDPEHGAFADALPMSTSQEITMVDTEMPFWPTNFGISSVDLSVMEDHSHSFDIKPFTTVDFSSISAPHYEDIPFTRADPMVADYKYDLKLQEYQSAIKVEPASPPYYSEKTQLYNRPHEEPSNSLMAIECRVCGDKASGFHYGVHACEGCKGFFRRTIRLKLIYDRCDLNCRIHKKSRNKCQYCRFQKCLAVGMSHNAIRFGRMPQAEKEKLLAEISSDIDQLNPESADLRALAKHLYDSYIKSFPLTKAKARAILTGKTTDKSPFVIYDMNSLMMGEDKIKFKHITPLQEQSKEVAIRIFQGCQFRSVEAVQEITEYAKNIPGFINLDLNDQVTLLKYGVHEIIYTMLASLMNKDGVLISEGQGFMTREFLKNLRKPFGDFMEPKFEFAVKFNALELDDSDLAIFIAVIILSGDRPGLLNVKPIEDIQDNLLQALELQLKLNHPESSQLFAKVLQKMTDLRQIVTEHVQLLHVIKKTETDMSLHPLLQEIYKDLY
Description: Agonist activity at mouse PPARgamma assessed as receptor activation by cell based assay

[3] = AUC in mouse plasma at 5 mg/kg, po; type: ADME, organism-based; design: dose 5 mg/kg, route oral
[4] = system: Mus musculus; test: Elevation of HDL cholesterol level in human Apo-A1 transgenic C57B6 mouse at 20 mg/kg, po bid after 5 days; type: functional
[5] = Half life in mouse plasma at 0.2 mg/kg, iv or 5 mg/kg, po; type: ADME, organism-based
[6] = Oral bioavailability in mouse at 5 mg/kg; type: ADME, organism-based; conditions: in vivo
[7] = Clearance in mouse plasma at 0.2 mg/kg, iv or 5 mg/kg, po; type: ADME, organism-based
[8] = system: Mus musculus; test: Reduction of triglyceride level in human Apo-A1 transgenic C57B6 mouse at 20 mg/kg, po bid after 5 days; type: functional; design: scale not given: the % may be the effect or the level left
[9] = target: T3, Peroxisome proliferator-activated receptor delta (Mus musculus, UniProt P35396)
T3 sequence (P35396 whole entry): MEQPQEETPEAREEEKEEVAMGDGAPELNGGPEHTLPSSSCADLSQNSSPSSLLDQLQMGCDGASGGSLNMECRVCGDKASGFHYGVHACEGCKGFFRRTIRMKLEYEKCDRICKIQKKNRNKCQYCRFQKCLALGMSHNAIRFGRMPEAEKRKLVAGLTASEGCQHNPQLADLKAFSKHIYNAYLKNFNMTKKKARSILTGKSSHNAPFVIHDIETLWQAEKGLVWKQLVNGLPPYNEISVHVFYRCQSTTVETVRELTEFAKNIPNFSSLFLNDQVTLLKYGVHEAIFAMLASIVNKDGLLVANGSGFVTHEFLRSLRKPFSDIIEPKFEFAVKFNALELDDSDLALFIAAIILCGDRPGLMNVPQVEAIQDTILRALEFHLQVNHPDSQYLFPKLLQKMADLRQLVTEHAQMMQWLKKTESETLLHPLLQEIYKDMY
Description: Agonist activity at mouse PPARdelta assessed as receptor activation by cell based assay

[10] = target: T4, Peroxisome proliferator-activated receptor alpha (Mus musculus, UniProt P23204)
T4 sequence (P23204 whole entry): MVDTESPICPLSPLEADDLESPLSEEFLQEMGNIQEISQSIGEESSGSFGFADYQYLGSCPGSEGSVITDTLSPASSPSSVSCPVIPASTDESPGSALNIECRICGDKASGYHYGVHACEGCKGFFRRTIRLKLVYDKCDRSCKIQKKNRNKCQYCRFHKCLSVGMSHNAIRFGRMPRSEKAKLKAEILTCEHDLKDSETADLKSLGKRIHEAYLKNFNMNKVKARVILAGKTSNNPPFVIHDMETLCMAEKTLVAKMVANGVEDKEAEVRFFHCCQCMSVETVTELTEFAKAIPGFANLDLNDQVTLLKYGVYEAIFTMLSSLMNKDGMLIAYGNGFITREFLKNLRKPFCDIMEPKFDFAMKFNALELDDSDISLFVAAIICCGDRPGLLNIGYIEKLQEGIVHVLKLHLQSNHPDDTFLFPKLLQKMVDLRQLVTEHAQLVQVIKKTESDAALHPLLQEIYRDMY
Description: (§1) Agonist activity at mouse PPARalpha assessed as receptor activation by cell based assay

[11] = target: T5, Peroxisome proliferator-activated receptor delta (Homo sapiens, UniProt Q03181)
T5 sequence (Q03181 whole entry): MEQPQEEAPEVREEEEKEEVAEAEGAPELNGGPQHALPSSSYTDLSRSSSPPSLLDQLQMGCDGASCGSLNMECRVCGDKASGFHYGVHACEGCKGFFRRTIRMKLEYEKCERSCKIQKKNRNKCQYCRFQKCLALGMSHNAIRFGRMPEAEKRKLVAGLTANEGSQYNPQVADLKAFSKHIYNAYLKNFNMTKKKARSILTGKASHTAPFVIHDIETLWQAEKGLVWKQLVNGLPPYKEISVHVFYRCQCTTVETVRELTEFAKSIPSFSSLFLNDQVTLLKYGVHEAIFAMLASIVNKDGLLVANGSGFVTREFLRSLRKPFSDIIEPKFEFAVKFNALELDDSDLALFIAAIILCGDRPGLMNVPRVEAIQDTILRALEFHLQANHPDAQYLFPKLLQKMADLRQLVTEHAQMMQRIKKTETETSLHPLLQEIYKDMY
Description: Agonist activity at human PPARdelta assessed as receptor activation by cell based assay

[12] = system: Mus musculus; test: Reduction of VLDL cholesterol level in human Apo-A1 transgenic C57B6 mouse at 20 mg/kg, po bid after 5 days; type: functional; design: scale not given: the % may be the effect or the level left
[13] = Volume of distribution in mouse plasma at 0.2 mg/kg, iv or 5 mg/kg, po; type: ADME, organism-based; conditions: read-out: Vdss
[14] = target: T6, Peroxisome proliferator-activated receptor alpha (Mus musculus) (UniProt P23204)
T6 sequence (whole entry): T4 sequence (P23204 whole entry)
Description: as §1

[15] = Cmax in mouse plasma at 5 mg/kg, po; type: ADME, organism-based; design: dose 5 mg/kg, route oral
[16] = target: T7, Peroxisome proliferator-activated receptor gamma (Homo sapiens, UniProt P37231)
T7 sequence (P37231 whole entry): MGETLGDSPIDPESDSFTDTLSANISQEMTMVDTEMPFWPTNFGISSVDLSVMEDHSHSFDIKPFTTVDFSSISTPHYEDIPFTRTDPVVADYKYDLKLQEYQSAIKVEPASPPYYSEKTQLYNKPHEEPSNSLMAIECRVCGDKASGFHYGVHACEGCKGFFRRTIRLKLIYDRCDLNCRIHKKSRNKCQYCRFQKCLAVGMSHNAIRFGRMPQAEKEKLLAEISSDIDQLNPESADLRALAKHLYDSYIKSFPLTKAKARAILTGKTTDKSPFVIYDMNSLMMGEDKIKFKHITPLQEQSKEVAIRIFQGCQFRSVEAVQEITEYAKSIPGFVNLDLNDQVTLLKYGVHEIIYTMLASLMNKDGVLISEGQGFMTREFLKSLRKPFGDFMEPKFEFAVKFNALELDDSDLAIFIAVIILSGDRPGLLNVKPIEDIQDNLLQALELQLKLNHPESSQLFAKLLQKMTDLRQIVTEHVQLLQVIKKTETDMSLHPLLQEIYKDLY
Description: Agonist activity at human PPARgamma assessed as receptor activation by cell based assay

[17] = system: Mus musculus; test: Reduction of LDL cholesterol level in human Apo-A1 transgenic C57B6 mouse at 20 mg/kg, po bid after 5 days; type: functional; design: scale not given: the % may be the effect or the level left

EC50 [1]: 5 nM
EC50 [2]: 600 nM
AUC [3]: 18800 ng·h/mL
half-life [5]: 4.9 h
bioavailability [6]: 16%
clearance [7]: 0.78 mL/min/kg
EC50 [9]: > 10000 nM
EC50 [10]: 20 nM
EC50 [11]: > 10000 nM
Vd [13]: 0.22 L/kg
Activity [14]: 123%
Cmax [15]: 4520 ng/mL
EC50 [16]: 1100 nM
SMILES: O=C(NCc1ccc(NS(=O)(=O)C(F)(F)F)cc1)c1ccc(-c2ccc(Cl)cc2)cc1
Activity [4]: 102%
Activity [8]: -69%
Activity [12]: -85%
Activity [17]: -55%
